Like-named read-outs stand apart in the source and are kept apart here.
What was measured:
Format in all cases: cell-based
[1] = system: SARS-CoV-2 (Wuhan variant); assay: microbe, parasite or virus in culture; conditions: for inhibition of SARS-CoV-2 replication in virus-infected cells: 2 and 10 µM, Vero cells
[2] = system: SARS-CoV-2 variants Alpha (B.1.1.7), Beta (B.1.351), Gamma (p.1), Delta (B.1.617.2), and Omicron (B.1.1.529); conditions: 1 and 10 µM, 48 h, Vero cells
[3] = system: SARS-CoV-2 (Wuhan variant); assay: Virucidal activity against SARS-CoV-2 (plaque assay); conditions: 10 µM, 120 min at 37 °C in the dark
[4] = Severe acute respiratory syndrome coronavirus 2, Vero, 48 h, read-out: App. EC50
[5] = Severe acute respiratory syndrome coronavirus 2, Vero, read-out: EC50

SMILES: O=c1[nH]c(=O)n([C@@H]2O[C@H](CO)[C@@H](O)[C@@H]2O)cc1C#Cc1ccc2c3cccc4cccc(c5cccc1c52)c43 [Compound 1, 5-(perylen-3-yl)ethynyl-arabino-uridine]
- EC50 [1, 4]: 1.12 µM
- EC50 [1, 5]: 0.406 µM
- EC50 ([1]; read-out: EC50): 0.406 µM

SMILES: O=c1[nH]c(=O)n([C@H]2C[C@H](O)[C@@H](CO)O2)cc1C#Cc1ccc2c3cccc4cccc(c5cccc1c52)c43 [Compound 2, 5-(perylen-3-yl)ethynyl-2′-deoxy-uridine]
- replication of all tested SARS-CoV-2 variants [2]: efficiently inhibited
- EC50 [1, 4]: 0.843 µM
- EC50 [1, 5]: 0.256 µM
- EC50 ([1]; read-out: EC50): 0.256 µM

SMILES: O=c1[nH]cc(C#Cc2ccc3c4cccc5cccc(c6cccc2c63)c54)c(=O)[nH]1 [Compound 3]
- EC50 [1, 4]: > 5 µM
- EC50 [1, 5]: > 2.5 µM

SMILES: Cn1cc(C#Cc2ccc3c4cccc5cccc(c6cccc2c63)c54)c(=O)n(C)c1=O [Compound 4]
- EC50 [1, 4]: 2.06 µM
- EC50 [1, 5]: 0.406 µM
- EC50 ([1]; read-out: EC50): 0.406 µM

SMILES: CC(C)(C)C(=O)OCn1c(=O)c(C#Cc2ccc3c4cccc5cccc(c6cccc2c63)c54)cn(CC(=O)O)c1=O [Compound 5]
- EC50 [1, 4]: > 5 µM
- EC50 [1, 5]: ~2 µM
- EC50 ([1]; read-out: EC50): 2.05 µM

SMILES: CC(C)(C)C(=O)OCn1c(=O)c(C#Cc2ccc3c4cccc5cccc(c6cccc2c63)c54)cn(CC(=O)NCCCCO)c1=O [Compound 6]
- EC50 [1, 4]: 0.781 µM
- EC50 [1, 5]: 0.0915 µM

SMILES: CC(C)(C)C(=O)OCn1c(=O)c(C#Cc2ccc3c4cccc5cccc(c6cccc2c63)c54)cn(CC(=O)NC[C@@H](O)C(C)(C)CO)c1=O [Compound 7]
- inhibition of SARS-CoV-2 replication in virus-infected cells [1]: complete inhibition
- EC50 [1, 4]: 1.17 µM
- EC50 [1, 5]: 0.417 µM

SMILES: CCCCNC(=O)Cn1cc(C#Cc2ccc3c4cccc5cccc(c6cccc2c63)c54)c(=O)n(COC(=O)C(C)(C)C)c1=O [Compound 8]
- EC50 [1, 4]: > 5 µM
- EC50 [1, 5]: ~2 µM

SMILES: CC(C)(C)C(=O)OCn1c(=O)c(C#Cc2ccc3c4cccc5cccc(c6cccc2c63)c54)cn(CC(=O)NCCO)c1=O [Compound 9]
- EC50 [1, 4]: 0.781 µM
- EC50 [1, 5]: 0.14 µM

SMILES: CC(C)(C)C(=O)OCn1c(=O)c(C#Cc2ccc3c4cccc5cccc(c6cccc2c63)c54)cn(CC(=O)NCCCO)c1=O [Compound 10]
- EC50 [1, 4]: 1.93 µM
- EC50 [1, 5]: 0.382 µM

SMILES: CC(C)(C)C(=O)OCn1c(=O)c(C#Cc2ccc3c4cccc5cccc(c6cccc2c63)c54)cn(CC(=O)NCCCCCO)c1=O [Compound 11]
- EC50 [1, 4]: 1.07 µM
- EC50 [1, 5]: 0.433 µM

SMILES: CC(C)(C)C(=O)OCn1c(=O)c(C#Cc2ccc3c4cccc5cccc(c6cccc2c63)c54)cn(CC(=O)NCCCCCCO)c1=O [Compound 12]
- EC50 [1, 4]: > 5 µM
- EC50 [1, 5]: 0.812 µM
- EC50 ([1]; read-out: EC50): 0.812 µM

SMILES: CC(C)(C)C(=O)OCn1c(=O)c(C#Cc2ccc3c4cccc5cccc(c6cccc2c63)c54)cn(CC(=O)N(CCO)CCO)c1=O [Compound 13]
- replication of all tested SARS-CoV-2 variants [2]: efficiently inhibited
- inhibition of SARS-CoV-2 replication in virus-infected cells [1]: complete inhibition
- EC50 [1, 4]: 0.622 µM
- EC50 [1, 5]: 0.274 µM

SMILES: CN(C)c1ccc(C#Cc2ccc3c4cccc5cccc(c6cccc2c63)c54)cc1 [Compound 14]
- EC50 [1, 4]: > 5 µM
- EC50 [1, 5]: > 2.5 µM

SMILES: CC(=O)Nc1ccc(C#Cc2ccc3c4cccc5cccc(c6cccc2c63)c54)cc1 [Compound 15]
- EC50 [1, 4]: 0.325 µM
- EC50 [1, 5]: 0.063 µM
- EC50 ([1]; read-out: EC50): 0.0631 µM

SMILES: O=C(O)c1ccc(-c2ccc3c4cccc5cccc(c6cccc2c63)c54)s1 [Compound 16]
- EC50 [1, 4]: 2.56 µM
- EC50 [1, 5]: 0.536 µM
- EC50 ([1]; read-out: EC50): 0.537 µM

SMILES: O=C(NCCCCO)c1ccc(-c2ccc3c4cccc5cccc(c6cccc2c63)c54)s1 [Compound 17]
- replication of all tested SARS-CoV-2 variants [2]: efficiently inhibited
- EC50 [1, 4]: < 0.004 µM
- EC50 [1, 5]: < 0.004 µM
- virucidal effect against SARS-CoV-2 (ranking) [3]: strongest virucidal effect

SMILES: O=C(c1ccc(-c2ccc3c4cccc5cccc(c6cccc2c63)c54)s1)N(CCO)CCO [Compound 18]
- EC50 [1, 4]: 0.132 µM
- EC50 [1, 5]: 0.019 µM
- EC50 ([1]; read-out: EC50): 0.0191 µM

SMILES: CCCCNC(=O)c1ccc(-c2ccc3c4cccc5cccc(c6cccc2c63)c54)s1 [Compound 19]
- EC50 [1, 4]: 0.47 µM
- EC50 [1, 5]: 0.098 µM
- EC50 ([1]; read-out: EC50): 0.0982 µM

SMILES: O=C(O)c1ccc2c3cccc4cccc(c5cccc1c52)c43 [Compound 20]
- EC50 [1, 4]: > 5 µM
- EC50 [1, 5]: > 2.5 µM

— publication PMC10307035, “Antiviral activity of singlet oxygen-photogenerating perylene compounds against SARS-CoV-2: Interaction with the viral envelope and photodynamic virion inactivation” (Virus Research, 2023)
